Measured values reported in ChEMBL document CHEMBL1201862, “PubChem BioAssay data set” (2004).
Activity calls are given as the source filed them.

Experiments:
Trypsin = Trypsin (Sus scrofa, UniProt P00761); assay: porcine trypsin inhibitors, dose response, selectivity assay for Rce1 protease inhibitor project, biochemical, quenched peptide fluorescence, cherry-pick (AID 488789)
CAAX prenyl protease 2 = target: T1, CAAX prenyl protease 2 (Saccharomyces cerevisiae S288c, UniProt Q03530); format: biochemical
T1 sequence (Q03530 whole entry): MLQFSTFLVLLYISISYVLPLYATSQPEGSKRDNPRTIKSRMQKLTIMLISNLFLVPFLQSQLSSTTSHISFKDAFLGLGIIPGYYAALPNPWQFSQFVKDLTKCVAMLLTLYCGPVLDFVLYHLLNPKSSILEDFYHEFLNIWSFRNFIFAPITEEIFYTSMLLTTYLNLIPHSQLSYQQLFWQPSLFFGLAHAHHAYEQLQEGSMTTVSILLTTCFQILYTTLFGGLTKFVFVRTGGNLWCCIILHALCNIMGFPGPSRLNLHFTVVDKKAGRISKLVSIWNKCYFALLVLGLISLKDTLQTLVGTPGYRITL

[1] = target: Voltage-dependent T-type calcium channel subunit alpha-1H (Homo sapiens, UniProt O95180); format: functional;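 also: channel activity triggered by adding a high calcium stimulation buffer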
Chain of Voltage-dependent T-type calcium channel subunit alpha-1H (O95180 whole entry): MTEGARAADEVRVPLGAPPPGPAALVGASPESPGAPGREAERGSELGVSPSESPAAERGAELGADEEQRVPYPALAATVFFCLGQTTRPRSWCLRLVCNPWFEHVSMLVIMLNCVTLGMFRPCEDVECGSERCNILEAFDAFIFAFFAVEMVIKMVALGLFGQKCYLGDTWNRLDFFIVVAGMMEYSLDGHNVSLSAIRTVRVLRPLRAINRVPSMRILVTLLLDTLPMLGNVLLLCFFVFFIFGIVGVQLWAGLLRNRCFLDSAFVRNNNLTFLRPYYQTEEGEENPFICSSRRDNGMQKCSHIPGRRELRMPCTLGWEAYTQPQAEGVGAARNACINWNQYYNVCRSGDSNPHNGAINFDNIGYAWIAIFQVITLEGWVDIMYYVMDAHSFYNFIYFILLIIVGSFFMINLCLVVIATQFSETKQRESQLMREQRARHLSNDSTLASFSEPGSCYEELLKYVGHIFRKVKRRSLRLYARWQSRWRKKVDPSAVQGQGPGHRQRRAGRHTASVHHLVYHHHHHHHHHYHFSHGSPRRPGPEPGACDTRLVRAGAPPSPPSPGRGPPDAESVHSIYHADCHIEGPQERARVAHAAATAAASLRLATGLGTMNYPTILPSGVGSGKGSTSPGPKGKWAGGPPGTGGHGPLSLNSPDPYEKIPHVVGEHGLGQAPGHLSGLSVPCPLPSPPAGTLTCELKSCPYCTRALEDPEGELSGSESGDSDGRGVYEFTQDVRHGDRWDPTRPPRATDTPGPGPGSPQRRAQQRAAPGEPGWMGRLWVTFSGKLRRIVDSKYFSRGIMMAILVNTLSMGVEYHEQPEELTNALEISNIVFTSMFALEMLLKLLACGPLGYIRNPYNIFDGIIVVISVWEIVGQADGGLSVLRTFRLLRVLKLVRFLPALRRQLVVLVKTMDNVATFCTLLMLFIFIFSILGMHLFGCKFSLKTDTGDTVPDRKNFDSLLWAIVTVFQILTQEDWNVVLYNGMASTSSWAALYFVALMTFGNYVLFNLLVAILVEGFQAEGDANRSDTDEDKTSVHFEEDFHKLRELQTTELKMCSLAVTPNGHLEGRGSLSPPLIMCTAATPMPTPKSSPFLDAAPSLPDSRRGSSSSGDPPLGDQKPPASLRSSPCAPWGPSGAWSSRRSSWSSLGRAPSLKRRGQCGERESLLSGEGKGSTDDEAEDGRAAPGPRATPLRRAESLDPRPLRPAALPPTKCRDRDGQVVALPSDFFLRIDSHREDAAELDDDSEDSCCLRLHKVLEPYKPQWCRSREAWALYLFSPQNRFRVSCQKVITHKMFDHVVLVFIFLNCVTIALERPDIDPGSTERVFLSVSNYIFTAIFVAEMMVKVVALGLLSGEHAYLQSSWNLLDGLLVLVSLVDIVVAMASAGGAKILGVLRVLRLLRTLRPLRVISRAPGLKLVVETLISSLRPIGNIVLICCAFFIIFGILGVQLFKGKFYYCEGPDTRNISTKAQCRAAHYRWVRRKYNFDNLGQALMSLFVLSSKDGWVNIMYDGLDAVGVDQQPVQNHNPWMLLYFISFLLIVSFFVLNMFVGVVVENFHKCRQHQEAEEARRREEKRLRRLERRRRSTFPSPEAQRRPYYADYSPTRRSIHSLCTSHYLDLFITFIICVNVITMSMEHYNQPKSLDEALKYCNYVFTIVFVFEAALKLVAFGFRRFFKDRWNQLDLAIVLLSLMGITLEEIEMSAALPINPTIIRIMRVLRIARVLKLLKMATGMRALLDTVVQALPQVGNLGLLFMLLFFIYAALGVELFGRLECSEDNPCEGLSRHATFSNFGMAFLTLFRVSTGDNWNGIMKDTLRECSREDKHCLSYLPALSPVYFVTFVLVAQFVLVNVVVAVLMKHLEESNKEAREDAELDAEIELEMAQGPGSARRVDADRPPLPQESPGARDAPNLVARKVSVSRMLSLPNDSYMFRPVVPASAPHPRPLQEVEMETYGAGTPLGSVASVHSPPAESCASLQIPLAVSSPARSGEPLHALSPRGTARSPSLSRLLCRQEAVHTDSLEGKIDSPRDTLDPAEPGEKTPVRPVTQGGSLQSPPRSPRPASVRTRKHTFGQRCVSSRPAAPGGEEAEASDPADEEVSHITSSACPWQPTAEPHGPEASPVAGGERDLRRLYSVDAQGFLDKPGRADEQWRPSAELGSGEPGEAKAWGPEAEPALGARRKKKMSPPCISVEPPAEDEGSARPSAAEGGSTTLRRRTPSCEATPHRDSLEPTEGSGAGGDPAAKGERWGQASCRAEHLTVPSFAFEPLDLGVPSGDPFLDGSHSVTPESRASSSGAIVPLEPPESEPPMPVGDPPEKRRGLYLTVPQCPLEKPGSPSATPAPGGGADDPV

[2] = cytotoxicity in MIN6 insulinoma cells, dose response, cytotoxicity control, cell-based, mouse insulinoma (AID 2122); format: functional;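 also: confirmatory high-throughput counterscreen run to flag cytotoxic compounds; mouse MIN-6 beta cells carrying an insulin promoter eGFP reporter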
[3] = insulin promoter down-regulators in MIN6 cells, imaging, high-content screening, mouse beta cells (AID 1628); format: functional
[4] = cytotoxicity in HEK-293T cells, dose response, cytotoxicity control for BCR NF-kB inhibitor project, luminescence, B-cell screen hits (AID 489021); format: functional, cell-based;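 also: HEK-293T cells carrying an NF-kB luciferase reporter; cells exposed to compound for about 14 hours before viability readout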
Hexokinase HKDC1 = target: T2, Hexokinase HKDC1 (Homo sapiens, UniProt Q2TB90); assay: HKDC1 hexokinase inhibitors, dose response, biochemical, W721R variant (AID 504729); format: functional
T2 sequence (Q2TB90 whole entry): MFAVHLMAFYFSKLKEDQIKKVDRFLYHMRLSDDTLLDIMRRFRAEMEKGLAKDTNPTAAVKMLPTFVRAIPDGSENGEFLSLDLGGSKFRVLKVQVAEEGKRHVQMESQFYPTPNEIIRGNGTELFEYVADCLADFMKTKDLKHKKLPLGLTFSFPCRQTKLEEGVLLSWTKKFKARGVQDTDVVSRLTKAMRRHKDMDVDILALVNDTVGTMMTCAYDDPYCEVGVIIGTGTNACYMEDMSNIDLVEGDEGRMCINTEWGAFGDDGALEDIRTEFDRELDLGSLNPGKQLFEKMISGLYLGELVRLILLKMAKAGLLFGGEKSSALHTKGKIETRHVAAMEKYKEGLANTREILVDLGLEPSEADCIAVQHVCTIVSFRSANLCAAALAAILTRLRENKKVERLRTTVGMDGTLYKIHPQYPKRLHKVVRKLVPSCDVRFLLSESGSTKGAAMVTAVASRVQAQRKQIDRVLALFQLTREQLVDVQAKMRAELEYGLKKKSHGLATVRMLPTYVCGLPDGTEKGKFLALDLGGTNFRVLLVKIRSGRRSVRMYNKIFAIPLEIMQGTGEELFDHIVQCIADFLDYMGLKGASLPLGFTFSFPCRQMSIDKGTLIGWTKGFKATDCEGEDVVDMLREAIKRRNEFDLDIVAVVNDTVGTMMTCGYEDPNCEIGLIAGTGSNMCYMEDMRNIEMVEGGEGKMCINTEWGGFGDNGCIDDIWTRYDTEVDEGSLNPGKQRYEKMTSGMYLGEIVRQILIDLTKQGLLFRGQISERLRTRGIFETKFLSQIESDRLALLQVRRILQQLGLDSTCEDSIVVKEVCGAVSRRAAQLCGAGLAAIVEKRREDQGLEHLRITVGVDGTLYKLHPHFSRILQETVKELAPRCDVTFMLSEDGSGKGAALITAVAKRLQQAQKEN

[5] = target: T3, Carboxy-terminal domain RNA polymerase II polypeptide A small phosphatase 1 (Homo sapiens, UniProt Q9GZU7); assay: inhibitors of CTDSP1, concentration-response testing, biochemical assay, absorbance-based, actives from ultra-high-throughput screening (AID 540297); format: functional
T3 sequence (Q9GZU7 whole entry): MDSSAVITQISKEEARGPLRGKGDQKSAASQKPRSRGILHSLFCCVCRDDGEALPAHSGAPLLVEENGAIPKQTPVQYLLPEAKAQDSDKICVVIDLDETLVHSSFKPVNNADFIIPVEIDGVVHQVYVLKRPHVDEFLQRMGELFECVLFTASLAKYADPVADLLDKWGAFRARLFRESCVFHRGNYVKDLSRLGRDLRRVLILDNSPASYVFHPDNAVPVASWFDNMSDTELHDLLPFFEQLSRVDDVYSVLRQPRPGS

[6] = target: T4, RNA-binding protein pos-1 (Caenorhabditis elegans, UniProt G5EF15); assay: inhibitors of POS-1/mex-3 RNA binding, dose response, biochemical, fluorescence polarization (AID 1964);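 also: purified POS-1 fused to maltose binding protein made in E. coli; potency of compounds blocking POS-1 binding to fluorescent RNA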
T4 sequence (G5EF15 whole entry): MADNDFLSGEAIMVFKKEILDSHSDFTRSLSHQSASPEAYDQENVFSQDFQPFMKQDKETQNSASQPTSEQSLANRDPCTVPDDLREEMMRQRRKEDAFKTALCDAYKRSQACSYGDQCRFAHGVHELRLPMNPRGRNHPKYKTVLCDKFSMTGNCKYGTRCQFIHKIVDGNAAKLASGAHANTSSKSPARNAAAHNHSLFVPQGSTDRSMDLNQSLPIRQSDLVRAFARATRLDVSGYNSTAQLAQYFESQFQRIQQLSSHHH

Phospholipase A2 = Phospholipase A2 (Homo sapiens, UniProt P04054); format: functional;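 also: confirmatory dose-response counterscreen on phospholipase A2, testing hits that came from an ultra-high-throughput screen for ATG4B inhibitors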
[7] = target: T5, Zinc finger protein mex-5 (Caenorhabditis elegans, UniProt Q9XUB2); assay: MEX-5/TCR-2 RNA interaction inhibitors, dose response, biochemical, C. elegans, fluorescence polarization (AID 1960)
T5 sequence (Q9XUB2 whole entry): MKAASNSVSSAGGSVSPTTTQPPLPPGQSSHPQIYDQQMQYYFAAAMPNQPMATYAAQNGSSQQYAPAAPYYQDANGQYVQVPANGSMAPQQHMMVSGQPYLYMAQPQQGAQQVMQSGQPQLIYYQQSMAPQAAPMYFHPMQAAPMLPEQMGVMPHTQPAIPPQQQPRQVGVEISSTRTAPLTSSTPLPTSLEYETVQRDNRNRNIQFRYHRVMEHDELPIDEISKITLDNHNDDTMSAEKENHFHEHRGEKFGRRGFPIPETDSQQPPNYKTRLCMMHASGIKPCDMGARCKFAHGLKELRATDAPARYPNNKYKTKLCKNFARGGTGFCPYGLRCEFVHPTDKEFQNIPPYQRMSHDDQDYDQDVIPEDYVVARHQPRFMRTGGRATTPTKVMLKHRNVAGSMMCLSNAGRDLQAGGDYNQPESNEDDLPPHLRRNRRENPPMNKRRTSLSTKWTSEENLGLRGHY

SUMO-activating enzyme [8] = target: T6, SUMO-activating enzyme (Homo sapiens, UniProt Q9UBT2); assay: inhibitors of in vitro SUMOylation cascade, primary screen, biochemical, HTRF, uHTS (AID 2006); format: protein-complex assay
T6 sequence (Q9UBE0 whole entry): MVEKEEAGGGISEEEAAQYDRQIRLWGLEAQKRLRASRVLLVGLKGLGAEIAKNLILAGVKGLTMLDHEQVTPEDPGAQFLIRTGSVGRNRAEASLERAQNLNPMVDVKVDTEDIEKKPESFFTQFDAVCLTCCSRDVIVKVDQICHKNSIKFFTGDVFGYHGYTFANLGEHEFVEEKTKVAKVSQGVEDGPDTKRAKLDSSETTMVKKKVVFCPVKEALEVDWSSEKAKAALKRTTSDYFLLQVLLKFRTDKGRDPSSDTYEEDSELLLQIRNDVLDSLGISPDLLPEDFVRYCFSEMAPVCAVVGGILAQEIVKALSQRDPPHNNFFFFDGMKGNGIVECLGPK
T6 sequence (Q9UBT2 whole entry): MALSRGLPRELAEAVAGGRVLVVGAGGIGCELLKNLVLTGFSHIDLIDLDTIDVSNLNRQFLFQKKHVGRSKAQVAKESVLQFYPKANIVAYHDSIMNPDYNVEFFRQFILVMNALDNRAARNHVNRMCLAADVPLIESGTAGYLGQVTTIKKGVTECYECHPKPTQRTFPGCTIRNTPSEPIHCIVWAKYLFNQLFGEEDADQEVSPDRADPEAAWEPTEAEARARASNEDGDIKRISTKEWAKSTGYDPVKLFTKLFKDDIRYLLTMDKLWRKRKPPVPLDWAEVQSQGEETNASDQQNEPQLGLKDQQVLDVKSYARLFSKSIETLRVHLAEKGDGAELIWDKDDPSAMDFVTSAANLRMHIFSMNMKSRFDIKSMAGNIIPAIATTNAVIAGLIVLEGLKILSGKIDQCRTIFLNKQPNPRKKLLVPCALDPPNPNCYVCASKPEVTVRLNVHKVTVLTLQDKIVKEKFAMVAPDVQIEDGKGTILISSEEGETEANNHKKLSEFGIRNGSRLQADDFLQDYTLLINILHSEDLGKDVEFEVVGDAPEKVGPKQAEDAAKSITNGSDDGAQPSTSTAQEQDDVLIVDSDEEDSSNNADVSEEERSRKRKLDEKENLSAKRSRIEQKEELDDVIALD

Cysteine protease ATG4B = target: T7, Cysteine protease ATG4B (Homo sapiens, UniProt Q9Y4P1); format: functional;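 also: Fluorescence-based dose-response confirmation assay measuring inhibition of ATG4B activity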
T7 sequence (Q9Y4P1 whole entry): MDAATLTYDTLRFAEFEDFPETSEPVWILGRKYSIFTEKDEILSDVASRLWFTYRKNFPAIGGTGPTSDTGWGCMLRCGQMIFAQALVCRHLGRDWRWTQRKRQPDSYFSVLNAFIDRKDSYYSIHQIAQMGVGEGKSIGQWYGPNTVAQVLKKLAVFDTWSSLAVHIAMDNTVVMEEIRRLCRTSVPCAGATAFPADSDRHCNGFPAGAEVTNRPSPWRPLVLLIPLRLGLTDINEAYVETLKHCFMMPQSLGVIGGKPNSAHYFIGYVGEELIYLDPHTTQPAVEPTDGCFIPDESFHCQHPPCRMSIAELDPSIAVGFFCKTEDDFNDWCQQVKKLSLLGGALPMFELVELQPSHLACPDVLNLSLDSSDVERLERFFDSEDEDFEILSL

SUMO-activating enzyme [9] = target: T6, SUMO-activating enzyme; assay: SUMOylation inhibitor hit validation, confirmation, SUMOylation inhibitor project, biochemical, AlphaScreen (AID 2018); format: functional
[10] = target: T8, Scavenger receptor class B member 1 (Mus musculus, UniProt Q61009); assay: inhibitors of SR-BI mediated HDL lipid uptake, dose response, ldlA[mSR-BI] cells, fluorescence, cherry pick (AID 493194); format: functional, cell-based;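 also: cellular uptake of fluorescent DiI-labeled HDL measured as cell fluorescence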
T8 sequence (Q61009 whole entry): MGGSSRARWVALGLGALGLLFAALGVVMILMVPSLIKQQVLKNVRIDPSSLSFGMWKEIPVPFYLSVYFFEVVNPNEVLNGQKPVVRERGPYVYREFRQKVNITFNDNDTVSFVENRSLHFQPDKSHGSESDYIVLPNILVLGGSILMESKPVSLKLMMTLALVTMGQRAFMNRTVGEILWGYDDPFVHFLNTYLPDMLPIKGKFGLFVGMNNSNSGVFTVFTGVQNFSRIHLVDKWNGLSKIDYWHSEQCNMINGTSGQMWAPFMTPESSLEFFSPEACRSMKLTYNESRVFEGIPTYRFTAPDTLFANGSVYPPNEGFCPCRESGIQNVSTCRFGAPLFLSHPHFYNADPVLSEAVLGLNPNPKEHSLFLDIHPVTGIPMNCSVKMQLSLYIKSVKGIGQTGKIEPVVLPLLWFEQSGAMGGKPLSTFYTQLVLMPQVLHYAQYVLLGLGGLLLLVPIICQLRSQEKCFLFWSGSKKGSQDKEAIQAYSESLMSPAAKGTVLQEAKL

[11] = Luminescence Cell-Based Dose Retest to Confirm Inhibitors of Cancer Stem Cells. [Related pubchem assays (depositor defined):AID2717, AID2721]; format: functional; settings: Homo sapiens
[12] = target: Induced myeloid leukemia cell differentiation protein Mcl-1 (Homo sapiens, UniProt Q07820); format: functional
Chain of Induced myeloid leukemia cell differentiation protein Mcl-1 (Q07820 whole entry): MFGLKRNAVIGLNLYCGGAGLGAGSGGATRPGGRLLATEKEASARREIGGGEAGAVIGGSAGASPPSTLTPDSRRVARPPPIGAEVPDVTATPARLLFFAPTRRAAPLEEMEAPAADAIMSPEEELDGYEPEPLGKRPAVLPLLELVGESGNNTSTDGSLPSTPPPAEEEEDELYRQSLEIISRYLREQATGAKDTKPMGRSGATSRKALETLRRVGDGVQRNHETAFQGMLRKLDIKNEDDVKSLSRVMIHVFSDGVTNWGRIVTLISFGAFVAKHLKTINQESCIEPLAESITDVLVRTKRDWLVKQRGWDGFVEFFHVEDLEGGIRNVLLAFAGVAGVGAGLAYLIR

ORF 73 = ORF 73 (Human herpesvirus 8, UniProt O40947); assay: inhibitors of C-LANA binding to LBS DNA, dose response, biochemical, fluorescence polarization, cherry-picked samples (AID 504725); design: species or system Human gammaherpesvirus 8;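 also: fluorescence polarization of a labeled DNA duplex reporting LANA DNA binding; potency is for inhibitors that block LANA binding to the DNA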
Large T antigen = Large T antigen (Simian virus 40, UniProt P03070); format: functional, Betapolyomavirus macacae;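 also: Confirmatory-stage PubChem screen for compounds that inhibit SV40 T antigen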
Chain of Large T antigen (P03070 whole entry): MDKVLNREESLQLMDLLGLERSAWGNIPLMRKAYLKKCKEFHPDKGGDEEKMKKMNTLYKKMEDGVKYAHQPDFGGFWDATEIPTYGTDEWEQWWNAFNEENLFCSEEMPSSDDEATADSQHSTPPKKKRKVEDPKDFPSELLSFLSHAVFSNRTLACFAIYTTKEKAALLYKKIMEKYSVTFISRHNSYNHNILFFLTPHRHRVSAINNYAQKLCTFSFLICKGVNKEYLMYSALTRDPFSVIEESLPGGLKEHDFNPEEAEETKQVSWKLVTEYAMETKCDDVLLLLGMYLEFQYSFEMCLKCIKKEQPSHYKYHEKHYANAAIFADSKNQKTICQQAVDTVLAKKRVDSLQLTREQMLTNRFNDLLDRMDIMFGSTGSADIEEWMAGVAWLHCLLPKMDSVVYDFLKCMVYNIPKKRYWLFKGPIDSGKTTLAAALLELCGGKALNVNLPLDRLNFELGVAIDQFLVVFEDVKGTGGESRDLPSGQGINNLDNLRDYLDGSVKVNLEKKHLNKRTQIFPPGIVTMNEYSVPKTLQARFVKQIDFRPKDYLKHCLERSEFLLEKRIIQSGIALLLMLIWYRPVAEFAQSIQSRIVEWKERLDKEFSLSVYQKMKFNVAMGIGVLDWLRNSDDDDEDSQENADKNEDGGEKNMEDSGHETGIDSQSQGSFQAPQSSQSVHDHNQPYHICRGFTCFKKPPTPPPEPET

Caspase-6 = target: T9, Caspase-6 (Homo sapiens, UniProt P55212); assay: human caspase-6 inhibitors, dose response, biochemical, VEID-R110 fluorescence, cherry-pick (AID 720632)
T9 sequence (P55212 whole entry): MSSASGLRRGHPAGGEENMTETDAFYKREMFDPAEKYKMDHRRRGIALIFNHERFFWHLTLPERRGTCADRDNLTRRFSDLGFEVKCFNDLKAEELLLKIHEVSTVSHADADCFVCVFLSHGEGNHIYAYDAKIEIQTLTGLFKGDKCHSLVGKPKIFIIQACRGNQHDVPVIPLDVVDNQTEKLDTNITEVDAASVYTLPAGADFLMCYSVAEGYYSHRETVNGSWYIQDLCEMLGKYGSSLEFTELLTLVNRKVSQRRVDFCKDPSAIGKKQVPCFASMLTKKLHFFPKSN

[13] = target: DNA (cytosine-5)-methyltransferase 1 (Homo sapiens, UniProt P26358); assay: DNMT1 methyltransferase inhibitors, confirmation, biochemical, fluorescent molecular beacon (AID 602386); format: functional
[14] = target: Delta-type opioid receptor (Homo sapiens, UniProt P41143); assay: SAR Analysis of Antagonists of the DOR Receptor using an Image-Based Assay - Set 3. [Related pubchem assays (depositor defined):AID1777, AID1785]; format: functional;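 also: U2OS cells expressing DOR1 and beta-arrestin GFP stimulated with 100 nM SNC80; imaging of GFP-tagged beta-arrestin moving into spots after receptor activation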
[15] = target: T10, Kappa-type opioid receptor (Homo sapiens, UniProt P41145); assay: SAR analysis of Antagonists of the Kappa Opioid Receptor (KOR) using an Image-Based Assay - Set 4. [Related pubchem assays (depositor defined):AID1777, AID1785]; format: functional
T10 sequence (P41145 whole entry): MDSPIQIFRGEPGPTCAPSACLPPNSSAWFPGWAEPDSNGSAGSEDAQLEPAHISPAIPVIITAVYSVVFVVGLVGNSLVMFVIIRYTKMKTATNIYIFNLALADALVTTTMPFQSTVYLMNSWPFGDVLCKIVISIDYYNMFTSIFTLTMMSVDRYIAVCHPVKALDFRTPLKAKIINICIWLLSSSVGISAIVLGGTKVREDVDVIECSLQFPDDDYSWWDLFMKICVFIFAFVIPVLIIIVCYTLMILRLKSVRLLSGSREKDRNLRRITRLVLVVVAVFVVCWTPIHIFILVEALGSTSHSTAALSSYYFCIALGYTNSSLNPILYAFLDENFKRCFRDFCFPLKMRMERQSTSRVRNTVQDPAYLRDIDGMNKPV

Mu-type opioid receptor = Mu-type opioid receptor (Homo sapiens, UniProt P35372); assay: SAR Analysis of Antagonists of the MOR Receptor using an Image-Based Assay - Set 3. [Related pubchem assays (depositor defined):AID1777, AID1785, AID1786, AID1966, AID2133, AID2136, AID2284, AID2285, AID2420]; format: functional
[16] = target: T10, Kappa-type opioid receptor; assay: SAR analysis of small molecule antagonists of the kappa opioid receptor via a luminescent beta-arrestin assay - Set 4. [Related pubchem assays (depositor defined):AID1777, AID1778, AID1785, AID1786, AID1966, AID2133, AID2136, AID2285]; format: functional

Chain of Trypsin (P00761 whole entry): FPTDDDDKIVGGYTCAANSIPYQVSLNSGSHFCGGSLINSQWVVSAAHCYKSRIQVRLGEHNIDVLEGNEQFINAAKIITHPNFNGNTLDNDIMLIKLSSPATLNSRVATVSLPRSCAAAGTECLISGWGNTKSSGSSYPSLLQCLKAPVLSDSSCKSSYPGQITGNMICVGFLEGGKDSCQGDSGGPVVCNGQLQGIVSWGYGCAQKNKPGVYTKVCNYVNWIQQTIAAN

## O=C(NCCc1cccnc1)c1cc(COc2ccc(F)cc2Cl)on1
Trypsin
  AC50: 8.75 µM (active)
CAAX prenyl protease 2
  AC50: 10.7 µM (active)

## c1ccc(C(c2nnnn2Cc2ccco2)N2CCN(c3nc4ccccc4s3)CC2)cc1 (centres undefined)
[1]
  EC50: 6.65 µM (active)

## Cc1ccccc1OCC(=O)N(Cc1nc(-c2ccccc2)no1)C(C)C
[1]
  EC50: 5.63 µM (active)

## Cc1cc(C)n2cc(CSCC(=O)O)nc2n1
Trypsin
  AC50: 12 µM (active)
CAAX prenyl protease 2
  AC50: 12.1 µM (active)

## N=c1ccn(Cc2ccccc2Cl)cc1
[2]
  IC50: 3.42 µM (active)
[3]
  IC50: 3.37 µM (active)
[4]
  IC50: > 80 µM (inactive)

## CCCCNC(=O)c1sc(=S)n2c1[nH]c(=O)c1ccc(C(=O)NCCc3ccc(OC)c(OC)c3)cc12
Hexokinase HKDC1
  IC50: 35.7 µM (inactive)

## Cc1ccccc1NC(=O)CN1C(=O)S/C(=C\c2ccc(-c3cc(C(=O)O)ccc3C)o2)C1=O
[5]
  IC50: 1.44 µM (active)
[6]
  EC50: 2.41 µM (active)
Phospholipase A2
  IC50: 1.77 µM (active)
[7]
  EC50: 1.68 µM (active)
SUMO-activating enzyme [8]
  IC50: 9.45 µM (active)
Cysteine protease ATG4B
  IC50: 2.05 µM (active)
SUMO-activating enzyme [9]
  IC50: 2.85 µM (active)

## C=CCCC(=O)Nc1nc(C)c(-c2csc(Nc3ccc(Cl)cc3)n2)s1
[10]
  AC50: 7.3 µM (active)
[11]
  AC50: 2.6 µM (active)

## O=C(O)Cc1c[nH]c2cccc(O)c12
[12]
  IC50: 4.87 µM (active)
ORF 73
  AC50: 22.1 µM (active)
Large T antigen
  IC50: 23.1 µM (active)
Caspase-6
  AC50: 11.1 µM (active)
[13]
  IC50: 6.74 µM (active)

## COc1ccc(NC(=O)CN(C)C(=O)C2(c3ccccc3)CCCC2)cc1
[4]
  IC50: > 80 µM (inactive)

## COc1ccc(N2CCN(CCNC(=O)Cn3c(=O)c4cccn4c4c(C)ccnc43)CC2)cc1
[14]
  IC50: > 32 µM (inactive)
[15]
  IC50: > 32 µM (inactive)
Mu-type opioid receptor
  IC50: > 32 µM (inactive)
[16]
  IC50: 14.1 µM (inactive)
